Experimental data reported in patent publication US12085575B2, “Compositions and methods for detecting proteinopathies” (BOARD OF SUPERVISORS OF LOUISIANA STATE UNIVERSITY AND …, priority 2011, dated 2024).

Test system: polyubiquitylated proteins
Assay: Camptothecin-induced degradation of polyubiquitylated proteins in A-T cells
Format: cell-based, human
Conditions: CPT 10 μm with Bafl 1 nm, 24 hr
Method: To test the generality of this observation, the anticancer drug camptothecin (CPT), a genotoxic agent (37, 48-50), which is known to sensitize A-T cells (37), like UV, was used to induce degradation of polyubiquitylated proteins in A-T cells. In FIG. 8E, A-T cells were treated with camptothecin (CPT; 10 μm) in the presence or absence of Bafl (1 nm) for 24 hr. Ubiquitin conjugated proteins using anti-ubiquitin antibodies were detected as described herein for FIG. 8A. The experiment was repeated three times.

CO/C1=C\C(C)=C\[C@@H](C)[C@@H](O)[C@@H](C)C/C(C)=C/C=C/[C@H](OC)[C@@H]([C@@H](C)[C@@H](O)[C@H](C)[C@@]2(O)C[C@@H](O)[C@H](C)[C@@H](C(C)C)O2)OC1=O [Bafilomycin A1]
CPT-mediated degradation of polyubiquitylated proteins: failed to protect
